SMILES strings stand for the structures.

We go through eight compounds from patent US8158628B2, “Sulfonylated 1,2,3,4-tetrahydropyrrolo[1,2-a]pyrazine compounds and their use as pharmaceuticals” (Gruenenthal GmbH, priority 2009, dated 2012).

Test [1] addresses T1, B1R of the rat (Rattus norvegicus, UniProt P97583).
T1 construct: expressed in transfected cells; host or cells: CHO K1 cells (Chinese hamster ovary), stably transfected
T1 sequence (P97583 1-337): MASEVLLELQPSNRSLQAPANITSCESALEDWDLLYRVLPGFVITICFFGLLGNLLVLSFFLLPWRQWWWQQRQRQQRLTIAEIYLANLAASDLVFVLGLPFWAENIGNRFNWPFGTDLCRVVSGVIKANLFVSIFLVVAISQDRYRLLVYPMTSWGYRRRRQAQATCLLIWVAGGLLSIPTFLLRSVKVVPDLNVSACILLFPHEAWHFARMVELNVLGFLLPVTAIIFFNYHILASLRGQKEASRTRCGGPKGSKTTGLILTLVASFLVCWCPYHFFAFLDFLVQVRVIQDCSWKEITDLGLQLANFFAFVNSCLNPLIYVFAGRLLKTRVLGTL
In words: FLIPR Ca2+ functional assay, B1R antagonism, rat B1R in CHO K1 cells. Format: cell-based. As to conditions: test substance 10 μM; rB1R CHO K1 cells; agonist Des-Arg9 bradykinin at EC80; % of maximum achievable inhibition. A digest of the protocol:
(§1)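 IC50 values come from varied compound concentrations applied 10-20 min before an EC80 agonist challenge, with Des-Arg9 bradykinin for rat and Lys-Des-Arg9 bradykinin for human receptor. Ca2+ influx in Fluo-4-loaded CHO K1 transfectants was measured by FLIPR peak fluorescence. Data are % inhibition vs maximum, n=2-3, N>=2.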

In test [2] the target is T2, human B1R (Homo sapiens, UniProt P46663).
T2 construct: expressed in transfected cells; host or cells: CHO K1 cells (Chinese hamster ovary), stably transfected
T2 sequence (P46663 1-353): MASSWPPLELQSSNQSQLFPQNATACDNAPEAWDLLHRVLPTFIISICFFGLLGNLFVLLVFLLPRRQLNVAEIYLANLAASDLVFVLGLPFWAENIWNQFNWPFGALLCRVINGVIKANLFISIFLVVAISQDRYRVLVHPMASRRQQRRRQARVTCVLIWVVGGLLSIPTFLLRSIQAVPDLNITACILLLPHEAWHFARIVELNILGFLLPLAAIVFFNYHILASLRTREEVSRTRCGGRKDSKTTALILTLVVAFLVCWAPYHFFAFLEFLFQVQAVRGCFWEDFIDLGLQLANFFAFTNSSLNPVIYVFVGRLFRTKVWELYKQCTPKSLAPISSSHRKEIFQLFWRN
As to the kind of experiment: FLIPR Ca2+ functional assay, B1R antagonism, human B1R in CHO K1 cells. The format is cell-based. As to conditions: test substance 10 μM; hB1R CHO K1 cells; agonist Lys-Des-Arg9 bradykinin at EC80; % of maximum achievable inhibition. A digest of the protocol:
as §1

The inhibition is the change of the read-out against control, counted positive when it falls. Consider `COc1ccc2cc(S(=O)(=O)N3CCn4cccc4C3CC(=O)NC3CCCc4cc(CNCc5ccccc5)ccc43)ccc2c1` (stereo not shown) [Example 100, N-[6-[(Benzylamino)-methyl]-1,2,3,4-tetrahydro-naphthalen-1-yl]-2-[2-[(6-methoxy-naphthalen-2-yl)sulfonyl]-1,2,3,4-tetrahydro-pyrrolo[1,2-a]pyrazin-1-yl]-acetamide], for which the inhibition at 10 µM in test [1] amounted to 103%; in test [2], 99.8%.

As for `COc1ccc2cc(S(=O)(=O)N3CCn4cccc4C3CC(=O)NC3CCc4cc(CNCc5ccccc5)ccc4C3)ccc2c1` (stereo not shown) [Example 101, N-[6-[(Benzylamino)-methyl]-1,2,3,4-tetrahydro-naphthalen-2-yl]-2-[2-[(6-methoxy-naphthalen-2-yl)sulfonyl]-1,2,3,4-tetrahydro-pyrrolo[1,2-a]pyrazin-1-yl]-acetamide], the inhibition at 10 µM in test [1] is 103%; in test [2], 99.9%.

With `Cc1ccc(S(=O)(=O)N2CCn3cccc3C2CC(=O)NC2CCCc3cc(CN(C)C)ccc32)cc1Cl` (stereo not shown) [Example 102, 2-[2-[(3-Chloro-4-methyl-phenyl)sulfonyl]-1,2,3,4-tetrahydro-pyrrolo[1,2-a]pyrazin-1-yl]-N-[6-(dimethylaminomethyl)-1,2,3,4-tetrahydro-naphthalen-1-yl]-acetamide], the inhibition at 10 µM stood at 101% in test [1] and 99.9% in test [2].

Regarding `COc1ccc2cc(S(=O)(=O)N3CCn4cccc4C3CC(=O)NC3CCc4cc(CN5C6CCCC5CC6)ccc4C3)ccc2c1` (stereo not shown) [Example 103, N-[6-(8-Azabicyclo[3.2.1]octan-8-yl-methyl)-1,2,3,4-tetrahydro-naphthalen-2-yl]-2-[2-[(6-methoxy-naphthalen-2-yl)sulfonyl]-1,2,3,4-tetrahydro-pyrrolo[1,2-a]pyrazin-1-yl]-acetamide], the inhibition at 10 µM in test [1] was found to be 102%; in test [2] it was 100%.

With `COc1ccc2cc(S(=O)(=O)N3CCn4cccc4C3CC(=O)NC3CCCc4cc(CN(C)C(C)(C)C)ccc43)ccc2c1` (stereo not shown) [Example 104, N-[6-[(tert-Butyl-methyl-amino)-methyl]-1,2,3,4-tetrahydro-naphthalen-1-yl]-2-[2-[(6-methoxy-naphthalen-2-yl)sulfonyl]-1,2,3,4-tetrahydro-pyrrolo[1,2-a]pyrazin-1-yl]-acetamide], the inhibition at 10 µM in test [1] was 103%; in test [2], 99.9%.

On to `COc1ccc2cc(S(=O)(=O)N3CCn4cccc4C3CC(=O)NC3CCc4cc(CN5CCCc6ccccc65)ccc4C3)ccc2c1` (stereo not shown) [Example 105, 2-[2-[(6-Methoxy-naphthalen-2-yl)sulfonyl]-1,2,3,4-tetrahydro-pyrrolo[1,2-a]pyrazin-1-yl]-N-[6-(1,2,3,4-tetrahydro-quinolin-1-yl-methyl)-1,2,3,4-tetrahydro-naphthalen-2-yl]-acetamide], for which the inhibition at 10 µM in test [1] was 103%; in test [2] it was 99.8%.

Take `COc1ccc2cc(S(=O)(=O)N3CCn4cccc4C3CC(=O)NC3CCCc4cc(CN(C)C)ccc43)ccc2c1` (stereo not shown) [Example 106, N-[6-(Dimethylaminomethyl)-1,2,3,4-tetrahydro-naphthalen-1-yl]-2-[2-[(6-methoxy-naphthalen-2-yl)sulfonyl]-1,2,3,4-tetrahydro-pyrrolo[1,2-a]pyrazin-1-yl]-acetamide]: the inhibition at 10 µM in test [1] is 101%; in test [2] it was 100%.

Regarding `Cc1ccc(S(=O)(=O)N2CCn3cccc3C2CC(=O)NC2CCCc3cc(CN(C)C)ccc32)cc1` (stereo not shown) [Example 107, N-[6-(Dimethylaminomethyl)-1,2,3,4-tetrahydro-naphthalen-1-yl]-2-[2-(p-tolylsulfonyl)-1,2,3,4-tetrahydro-pyrrolo[1,2-a]pyrazin-1-yl]-acetamide], the inhibition at 10 µM in test [1] turned out to be 98.4%; in test [2], 99.3%.
